Assay results: patent publication US5439932A, “Substituted amine derivatives having anti-hyperlipemia activity” (Banyu Pharmaceutical Co., Ltd., priority 1990, dated 1995)
Counter-ions that a name gives are not always drawn.

Biological target: T1, Human squalene epoxidase (Homo sapiens, UniProt Q14534)
T1 construct: endogenous in cells; host or cells: Hep-G2 (human hepatoma) cells, microsomes solubilized with Triton X-100
Assay: Human squalene epoxidase inhibition action
Assay type: biochemical
Details: solubilized squalene epoxidase fraction from human hepatoma (Hep-G2) cells; 8 μM 3H-squalene; 37° C., 60 minutes; pH 7.5; read-out: 50% inhibitory concentration (IC50)
Protocol: Squalene epoxidase inhibition action (1) Preparation of squalene epoxidase Human squalene epoxidase is prepared based on the method disclosed in J. Biol. Chem. 245, 1670 (1970) and ibid. 250, 1572 (1975). Namely, human hepatoma (Hep-G2) cells are cultured at 37° C. under 5% carbon dioxide-mixed air. After completion of the culture the cells are scraped and recovered by centrifugation. The cells are suspended (1×10^8 cells/ml) in a 0.1M Tris-HCl buffer (pH 7.5), the suspension is homogenized and centrifuged at 9,750×g for 10 minutes, and the sediment is washed with a 0.1M Tris-HCl buffer (pH 7.5) and centrifuged at 105,000×g for 1 hour. […] After this solubilization treatment, the solution is diluted with 1 mM EDTA and 1 mM dithiothreitol so that the Triton X-100 concentration becomes 0.125%, and then centrifuged at 105,000×g for 1 hour. The resulting supernatant is used in the later test as a squalene epoxidase fraction. (2) Method for measurement of squalene epoxidase activity Measurement of human squalene epoxidase activity is carried out based on the method disclosed in J. Biol. Chem. 245, 1670 (1970). Namely, […] of a dimethylsulfoxide solution of a test drug is added to a solution consisting of 0.2 ml of the squalene epoxidase fraction prepared in (1) [Protein amount 0.4 mg, 0.1% Triton X-100, […] buffer (pH 7.5)], 100 μM FAD, 1 mM NADPH, 1 mM EDTA and 8 μM ^3 H-squalene-Tween 80 suspension to make the total volume 0.3 ml, and the mixture is subjected to shaking reaction at 37° C. for 60 minutes. 0.3 ml of a 10% potassium hydroxide-methanol solution is added to stop the reaction, and the mixture is heated at 75° C. for 1 hour. Then, after extraction of the nonsaponified substances, the extract is concentrated to dryness in a stream of nitrogen. […] The position of the formed ^3 H-squalene-2,3-epoxide on TLC is ascertained using as a marker ergosterol acetate and the ^3 H-squalene-2,3-epoxidepart of TLC is cut out. The TLC piece is immersed in a toluene series scintillator and measurement is carried out using a liquid scintillation counter. By this, 50% inhibitory concentrations (IC50 values) of compounds of the invention on squalene epoxidase are determined, and the results are shown in the following table.

T1 sequence (Q14534 whole entry): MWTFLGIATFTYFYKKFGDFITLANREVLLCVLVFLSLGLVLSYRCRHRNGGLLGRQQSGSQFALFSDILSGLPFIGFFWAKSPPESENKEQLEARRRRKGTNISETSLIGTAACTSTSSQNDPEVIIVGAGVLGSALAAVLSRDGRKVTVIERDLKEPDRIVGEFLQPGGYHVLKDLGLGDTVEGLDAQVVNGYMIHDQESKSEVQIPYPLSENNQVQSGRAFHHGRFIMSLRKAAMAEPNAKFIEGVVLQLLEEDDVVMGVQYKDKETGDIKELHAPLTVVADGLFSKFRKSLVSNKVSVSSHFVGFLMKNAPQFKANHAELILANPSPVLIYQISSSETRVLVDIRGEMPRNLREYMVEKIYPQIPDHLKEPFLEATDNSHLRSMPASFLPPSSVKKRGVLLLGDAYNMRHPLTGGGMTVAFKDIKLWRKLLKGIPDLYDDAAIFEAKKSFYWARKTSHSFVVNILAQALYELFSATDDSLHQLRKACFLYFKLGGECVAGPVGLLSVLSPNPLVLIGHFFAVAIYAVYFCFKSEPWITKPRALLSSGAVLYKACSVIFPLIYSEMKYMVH

Row | IC50 | Compound
1 | 0.2 nM | CN(C/C=C/C#CC(C)(C)C)Cc1ccc(COC/C=C/c2ccsc2)o1 [Example 38, (E,E)-N-methyl-N-(6,6-dimethyl-2-hepten-4-ynyl)-5-[3-(3-thienyl)-2-propenyloxymethyl]-2-furylmethylamine]
2 | 0.5 nM | CCN(CC#CC#CC(C)(C)OC)Cc1ccc(/C=C/COCc2ccsc2)o1 [Example 48, (E)-N-ethyl-N-(6-methoxy-6-methyl-2,4-heptadiynyl)-5-[3-(3-thienylmethoxy)-1-propenyl]-2-furylmethylamine]
3 | 0.4 nM | CCN(C/C=C/C#CC(C)(C)CC)CCOCCOc1cccc(-c2ccsc2)c1 [Example 35, (E)-N-ethyl-N-(6,6-dimethyl-2-octen-4-ynyl)-2-[2-[3-(3-thienyl)phenoxy]ethoxy]ethylamine hydrochloride]
4 | 0.3 nM | CCN(C/C=C/C#CC(C)(C)OC)Cc1cccc(COC/C=C/c2ccsc2)c1 [Example 7, (E,E)-N-ethyl-N-7(6-methoxy-6-methyl-2-hepten-4-ynyl)-3-3-(3-thienyl)-2-propenyloxymethyl]benzylamine hydrochloride]

Continued, compound first:

Row | Compound | IC50
5 | CCN(C/C=C/C#CC(C)(C)OC)Cc1ccc(COC/C=C/c2ccsc2)o1 [Example 30, (E,E)-N-ethyl-N-(6-methoxy-6-methyl-2-hepten-4-ynyl)-5-[3-(3-thienyl)-2-propenyloxymethyl]-2-furylmethylamine hydrochloride] | 0.8 nM
6 | CCN(CC#C/C=C/C(C)(C)C)Cc1ccc(COC/C=C/c2ccsc2)o1 [Example 46, (E,E)-N-ethyl-N-(6,6-dimethyl-4-hepten-2-ynyl)-5-[3-(3-thienyl)-2-propenyloxymethyl]-2-furylmethylamine] | 0.4 nM
